Assay results reported in patent publication US20030005927A1, “Process and device for inhalation of particulate medicaments” (priority 1996, published 2003).
“Also recorded” adds a separate entry of the source. Counter-ions that a name gives are not always drawn.

Assay: Spray drying of solutions; particle geometric diameter and hollow/solid structure by photomicrograph
Type: physicochemical
Settings: for Geometric Diameter (average particle diameter) / Hollow or Solid: spray dried particles from aqueous solution; for Geometric Diameter (average particle diameter): VIRTIS spray dryer; for Hollow or Solid: photomicrographs
Method: Medicament powder of each of the two medicaments, albuterol sulfate and amiloride HCl (abbreviated herein as Alb S and Amil HCl, respectively), is employed in this example. Also, the excipient, lactose, is employed in this example. Aliquots of each of the medicaments, and also of lactose, are spray dried as follows.
15 g of Alb S (lot no. W 1946 FB) are dissolved in 300 ml of water to create a 5% solution. Similarly, 3.479 g of Amil HCl (lot no. 9007H 902) are diluted in water to 1000 ml to create a solution. Likewise, 15 g of lactose (lot no. 1NC25, 605 from Sheffield Products of Norwich, N.Y.) are diluted in water to 150 ml to create a solution.
Each solution is respectively spray dried using a VIRTIS™ (a spray dryer commercially available from The Virtis Company of Gardiner, N.Y.) with each of the air from the nozzle and from the blower set at its respective maximum value under the following conditions of temperature and rate, as summarized in Table A below: […]

Row | Compound | Geometric Diameter (average particle diameter) | Hollow or Solid | Hollow or Solid (listed as lactose) | average particle diameter of the largest particulate (spray dried, photomicrographs FIGS. 6 and 7) | Hollow or Solid (HCl)
1 | albuterol sulfate [Alb S] | 1 to 5 μm | dimpled solid structures; also recorded: dimpled solids | – | – | –
2 | OC[C@H]1O[C@@H](O[C@H]2[C@H](O)[C@@H](O)C(O)O[C@@H]2CO)[C@H](O)[C@@H](O)[C@H]1O (some centres unmarked) [Lactose, lactose] | 2 μm | hollow spheres | spherical hollow particulates | about 17 μm | –
3 | N=C(N)NC(=O)c1nc(Cl)c(N)nc1N [Amil HCl, amiloride HCl] | 1 to 5 μm | – | – | – | spherical hollow particulates; also recorded: hollow spheres
